Measurements: patent publication US9918981B2, “Liquid buprenorphine formulations” (Insys Development Company, Inc., priority 2013, dated 2018)

Experiment: Bioavailability of buprenorphine sublingual spray vs Buprenex intramuscular and intravenous injection, crossover study
Conditions: for AUC(0-t) / AUC(inf) / Cmax / Tmax / t½ / λz: overnight fast
[1] = Intramuscular 0.3 mg (Buprenex injection)
[2] = Intravenous 0.3 mg (Buprenex bolus injection)
[3] = after sublingual administration (1 mg spray)

Excerpt: This was an open-label, 3-treatment, 3-period, 6-sequence, single-dose, randomized crossover study. Eighteen healthy male and female volunteers were randomly assigned to 1 of 6 treatment sequences. Dosing occurred after an overnight fast and there was a minimum 14-day washout between the dosing in two periods.

## Buprenorphine
[1]
  AUC(0-t): 4.97 ± 0.90 ng·h/mL
  AUC(inf): 5.50 ± 0.83 ng·h/mL
  Cmax: 1.73 ± 1.08 ng/mL
  Tmax: 0.17 h
  t½: 12.0 ± 5.31 h
  λz: 0.0655 ± 0.0210
[2]
  AUC(0-t): 5.09 ± 1.01 ng·h/mL
  AUC(inf): 5.51 ± 1.21 ng·h/mL
  Cmax: 3.95 ± 3.66 ng/mL
  Tmax: 0.083 h
  t½: 9.37 ± 6.49 h
  λz: 0.1028 ± 0.0641
[3]
  absolute bioavailability based on AUC(0-t): 41.03%
  absolute bioavailability based on AUC(inf): 42.57%
